From US20060264460A1 (Wyeth, priority 2005, published 2006)
pIC50: −log10 of the molar value.

Target: T1, human Cot/Tpl2 kinase (Homo sapiens, UniProt P41279)
T1 construct: human Cot/Tpl2 kinase construct encoding residues 30-398; 6His (N); made in house; host or cells: Sf9 insect cells, baculovirus system (BD Biosciences)
Test: Tpl2/Cot kinase assay: GST-MEK1 phosphorylation detected by ELISA (DELFIA Eu)
Assay type: biochemical
Procedure, shortened: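 His-tagged human Tpl2 from Sf9 cells, Ni-affinity and size-exclusion purified (monomer). 0.4 nM Tpl2 with 35 nM GST-MEK1, 50 uM ATP, MOPS pH 7.2, 1% DMSO, 1 h at 30° C; EDTA stop. MEK1 Ser217/221 phosphorylation detected by anti-phospho-MEK1 and Eu-labelled secondary ELISA; IC50 fitted.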

[1] = Table 2, Tpl2/Cot kinase, GST-MEK1 substrate, 50 uM ATP
[2] = 0.4 nM Tpl2, 35 nM GST-MEK1, 50 uM ATP, 1 h at 30° C.
[3] = Tpl2/Cot kinase, GST-MEK1 substrate, 50 uM ATP, 1 h at 30° C., Table 2
[4] = Tpl2/Cot kinase, GST-MEK1 substrate, 50 uM ATP

T1 sequence (P41279 30-398): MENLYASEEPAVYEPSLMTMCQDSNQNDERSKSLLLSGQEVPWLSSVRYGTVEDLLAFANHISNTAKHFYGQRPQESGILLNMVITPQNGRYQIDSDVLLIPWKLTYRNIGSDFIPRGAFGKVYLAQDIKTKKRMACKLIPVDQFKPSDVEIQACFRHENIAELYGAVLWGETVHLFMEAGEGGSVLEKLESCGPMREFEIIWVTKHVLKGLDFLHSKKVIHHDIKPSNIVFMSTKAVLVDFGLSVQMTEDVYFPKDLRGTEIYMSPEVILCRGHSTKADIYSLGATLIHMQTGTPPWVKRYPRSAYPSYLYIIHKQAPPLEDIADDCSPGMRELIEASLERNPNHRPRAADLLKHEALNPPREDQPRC

pIC50 [1] | pIC50 [4] | Compound | other results
– | 7.70 | C=CCn1cc(CNc2cc(Br)c3ncc(C#N)c(Nc4ccc(F)c(Cl)c4)c3c2)nn1 [Example 732] | –
– | 8.55 | CS(=O)(=O)NCCCn1cc(CNc2cc(Cl)c3ncc(C#N)c(Nc4ccc(F)c(Cl)c4)c3c2)nn1 [Example 905] | –
– | 7.47 | CC(C)N1CCC[C@H]1Cn1cc(CNc2cc(Cl)c3ncc(C#N)c(Nc4ccc(F)c(Cl)c4)c3c2)nn1 [Example 896] | –
– | 6.82 | CC(=O)N1CCC(Nc2cc(Cl)c3ncc(C#N)c(Nc4ccc(F)c(Cl)c4)c3c2)C1 (centres unmarked) [Example 871] | –
– | < 5.52 | N#Cc1cnc2c(Cl)cc(NCCNC(=O)Cc3cccnc3)cc2c1Nc1ccc(F)c(Cl)c1 [Example 862] | –
– | 9.10 | N#Cc1cnc2c(Cl)cc(NCc3cn(CC(=O)NCc4cccnc4)nn3)cc2c1Nc1ccc(F)c(Cl)c1 [Example 819] | –

Further lines, the compound ahead of its results:

Compound | pIC50 [1] | pIC50 [4] | other results
Cn1ccnc1CNc1cc(Cl)c2ncc(C#N)c(Nc3ccc(F)c(Cl)c3)c2c1 [Example 426] | 8.49 | – | –
N#Cc1cnc2ccc(NCc3ccc([N+](=O)[O-])cc3)cc2c1Nc1ccc(F)c(Cl)c1 [Example 17, 4-(3-Chloro-4-fluoro-phenylamino)-6-(4-nitro-benzylamino)-quinoline-3-carbonitrile] | – | – | pIC50 [2]: 6.72
N#Cc1cnc2c(Cl)cc(NCc3cc(Br)co3)cc2c1Nc1ccc(F)c(Cl)c1 [Example 1024] | – | – | pIC50 [3]: < 5.52
N#Cc1cnc2ccc(NCc3cccnc3)cc2c1Nc1cccc(Cl)c1 [Example 348] | 7.05 | – | –
CC(C)c1cccc(Nc2c(C#N)cnc3ccc(NCCN4CCOCC4)cc23)c1 [Example 352] | < 5.00 | – | –
C[S+]([O-])Cn1cc(CNc2cc(Br)c3ncc(C#N)c(Nc4ccc(F)c(Cl)c4)c3c2)nn1 (centres unmarked) [Example 532] | 6.92 | – | –
CN1CCC(Cn2cc(CN(C)c3cc(Br)c4ncc(C#N)c(Nc5ccc(F)c(Cl)c5)c4c3)nn2)CC1 [Example 679] | – | 6.54 | –
N#Cc1cnc2c(Br)cc(NCc3cn(CCCN4CCNCC4)nn3)cc2c1Nc1ccc(F)c(Cl)c1 [Example 596] | 6.96 | – | –
CN(C)CCC(c1cccnc1)n1cc(CNc2cc(Br)c3ncc(C#N)c(Nc4ccc(F)c(Cl)c4)c3c2)nn1 (centres unmarked) [Example 587] | 8.17 | – | –
N#Cc1cnc2c(Cl)cc(NCc3ccc(S(N)(=O)=O)cc3)cc2c1Nc1ccc(F)c(Cl)c1 [Example 186, 4-((8-chloro-4-(3-chloro-4-fluorophenylamino)-3-cyanoquinolin-6-ylamino)methyl)benzenesulfonamide] | – | – | pIC50 [2]: 7.35
N#Cc1cnc2c(Br)cc(NCc3cn(CCCO)nn3)cc2c1Nc1ccc(F)c(Cl)c1 [Example 697] | – | 7.74 | –
CCN1CC(CCn2cc(CNc3cc(Cl)c4ncc(C#N)c(Nc5ccc(F)c(Cl)c5)c4c3)nn2)N(c2ccccc2)C1=O (centres unmarked) [Example 616] | 7.60 | – | –
N#Cc1cnc2c(Br)cc(NCc3cn(CC4CCNCC4)nn3)cc2c1Nc1ccc(F)c(Cl)c1 [Example 496] | 7.33 | – | –
CN(C)CCCNC(=O)CNc1cc(Cl)c2ncc(C#N)c(Nc3ccc(F)c(Cl)c3)c2c1 [Example 603] | < 5.52 | – | –
N#Cc1cnc2c(Cl)cc(NCc3cn(C4CCN(CCF)CC4)nn3)cc2c1Nc1ccc(F)c(Cl)c1 [Example 1016] | – | – | pIC50 [3]: 7.82
N#Cc1cnc2ccc(NCC(=O)O)cc2c1Nc1ccc(F)c(Cl)c1 [Example 175, 2-(4-(3-chloro-4-fluorophenylamino)-3-cyanoquinolin-6-ylamino)acetic acid] | – | – | pIC50 [2]: 6.51
Cn1cc(CNc2cc(Cl)c3ncc(C#N)c(Nc4ccc(F)c(Cl)c4)c3c2)cn1 [Example 1026] | – | – | pIC50 [3]: 6.54
COCCOc1ccc(CNc2ccc3ncc(C#N)c(Nc4ccc(F)c(Cl)c4)c3c2)cc1Br [Example 24, 6-[3-Bromo-4-(2-methoxy-ethoxy)-benzylamino]-4-(3-chloro-4-fluoro-phenylamino)-quinoline-3-carbonitrile] | – | – | pIC50 [2]: 6.42
CC(C)(C)CN1CCC(n2cc(CNc3cc(Br)c4ncc(C#N)c(Nc5ccc(F)c(Cl)c5)c4c3)nn2)CC1 [Example 542] | 6.72 | – | –
N#Cc1cnc2c(Br)cc(NCc3cnc4cnccn34)cc2c1Nc1ccc(F)c(Cl)c1 [Example 700] | – | 6.96 | –
